# From patent US20210386829A1, “COMPOSITIONS AND METHODS FOR MODULATING CGRP SIGNALING TO REGULATE INNATE LYMPHOID CELL INFLAMMATORY RESPONSES” (The Broad Institute, Inc., priority 2018, published 2021)
# Where “and” joins values, the source holds several entries; their conditions need not be identical. Equal values may be shown once.
# Tests used:
# [1] = tested on: ILC2s; details: recent report (Sui et al., 2018); cited from earlier work
# [2] = tested on: inflammatory ILC2s (ST2-KLRG1+ ILCs; iILC2s); assay: culture of sort-purified inflammatory ILC2s (iILC2s) with IL-33 or IL-25 with or without CGRP, qPCR; assay type: cell-based, mouse; details: IL-33 or IL-25 with vs without CGRP, 6 hours
# Procedure: Isolation of lung cells for fluorescence-activated cell sorting. Mice were euthanized and perfused with 8 ml cold PBS via the right heart ventricle. Lung lobes were removed from the chest cavity and transferred into gentleMACS C tubes containing Buffer S and enzymes A and D from the lung dissociation kit (Cat #130-095-927; Miltenyi Biotec). After manual dissociation of the tissue by running program lung_01 of the automated tissue dissociator (gentleMACS; Miltenyi Biotec), and digestion at 37° C. for 25 min on a rotator, the tissue pieces were further dissociated by running program lung_02 of the automated tissue dissociator. Subsequently, the single-cell suspension was passed through a 70 um cell strainer and washed with DPBS (Cat #14190-144; Thermo Fisher Scientific) containing 0.5% bovine serum albumin (Cat #BP1600-1; Fisher Scientific) and 2 mM EDTA. After incubation of the cells with CD90.2 MicroBeads (Cat #130-049-101; Miltenyi Biotec) on ice for 17 min, cells were washed and transferred onto LS columns (Cat #130-042-401; Miltenyi Biotec) to enrich for CD90.2-positive cells by positive selection. […] Cells were purified by fluorescence-activated cell sorting using a BD FACS Aria IIIu flow cytometer with 3 lasers (405 nm, 488 nm, 640 nm) or 4 lasers (405 nm, 488 nm, 561 nm and 640 nm) (BD Biosciences). […]
# [3] = tested on: lung ILC2s; assay: expression profiles (RNA-seq) of lung ILC2s cultured with CGRP, IL-33 or both; assay type: cell-based, mouse
# Procedure: RNA-Seq. For population (bulk) RNA-seq, sorted ILCs were lysed with RLT Plus buffer and RNA was extracted using the RNeasy Plus Mini Kit (Qiagen). Full-length RNA-seq libraries were prepared as previously described (Singer, M. et al. A Distinct Gene Module for Dysfunction Uncoupled from Activation in Tumor-Infiltrating T Cells. Cell 166, 1500-1511 e1509, doi:10.1016/j.cell.2016.08.052 (2016). and paired-end sequenced (75 bp×2) with a 150 cycle Nextseq 500 high output V2 kit.
# Culture of innate lymphoid cells. Sort-purified innate lymphoid cells (ILCs) were cultured under sterile conditions in complete medium in a humidified incubator at 37° C. and 10% CO2. ILCs were plated at a density of 3,000-5,000 ILCs per well in a 96 well round-bottom plate in cell culture medium with 20 ng/ml IL-7. Depending on the experiment, different combinations of 200 ng/ml IL-25, 200 ng/ml IL-33, 1 ug/ml NMU and 100 nM CGRP were added either at start or after overnight culture with 20 ng/ml IL-7. After 6 hours or 3 days, culture supernatant was removed and frozen at −20° C. and ILCs were lysed in Extraction Buffer (PicoPure RNA isolation Kit; Thermo Fisher Scientific), incubated at 42° C. for 30 min and frozen at −80° C.
substance,measurement,setting,value
"CGRP: neuropeptide calcitonin gene-related peptide (encoded by Calca), ligand of the Ramp1/Calcrl receptor; given at 100 nM in vitro, 6.65 ug nasally",IL-5 and amphiregulin (Areg) production by ILC2s,[1],enhanced
same,Il5 and Il13 expression in iILC2s,[2],no differences
same,differentially expressed genes of CGRP alone shared with CGRP+IL-33 treatment,[3]; CGRP alone vs CGRP+IL-33,112 genes
same,"genes associated with cell cycle progression (Mki67, Birc5, Kdm8)",[3]; CGRP treatment alone,down-regulated
same,number of differentially expressed genes,[3]; CGRP treatment alone (IL-7+CGRP vs IL-7),331 genes
same,Il13 and Arg1 expression (effector ILC2 genes),[3]; IL-33+CGRP vs IL-33,significantly down-regulated
same,"genes associated with negative regulation of effector T cell responses (Pdcd1, Havcr2, Lilrb4, Entpd1, Tnfrsf18, FoxP3, Nfil3, Nr3c1, Fgl2)",[3]; IL-33+CGRP vs IL-33,upregulated
same,number of differentially expressed genes up-regulated in the presence of CGRP,"[3]; IL-33+CGRP vs IL-33, 3 days",635 genes
same,number of differentially expressed genes,"[3]; IL-33+CGRP vs IL-33, 3 days, P<0.05, fold change >1.5",> 900 genes and 946 genes
same,Ramp3 and Calca expression in ILC2s,"[3]; with CGRP, confirmed by qPCR",upregulated
